≈ marks a conversion by molar mass, not a printed value.
Assays:
Salmonella typhimurium = test: Antimicrobial activity against Salmonella typhimurium ATCC 19430 incubated for 18 hrs by agar dilution method; assay type: functional, Salmonella enterica subsp. enterica serovar Typhimurium; conditions: Salmonella enterica, ATCC 19430, 18 h
Streptococcus pyogenes = test: Antimicrobial activity against Streptococcus pyogenes ATCC 19615 incubated for 18 hrs by agar dilution method; assay type: functional; conditions: ATCC 19615, 18 h
Pseudomonas aeruginosa = test: Antimicrobial activity against Pseudomonas aeruginosa ATCC 27853 incubated for 18 hrs by agar dilution method; assay type: functional; conditions: ATCC 27853, 18 h
Staphylococcus aureus = test: Antimicrobial activity against Staphylococcus aureus ATCC 25923 incubated for 18 hrs by agar dilution method; assay type: functional; conditions: ATCC 25923, 18 h

Row | SMILES | MIC (Salmonella typhimurium) | MIC (Streptococcus pyogenes) | MIC (Pseudomonas aeruginosa) | MIC (Staphylococcus aureus)
1 | CCn1cc(C(=O)NCC(=O)N2CCN(c3cc4c(cc3F)c(=O)c(C(=O)O)cn4C3CC3)CC2)c(=O)c2cc3c(cc21)OCO3 | 7.6 µM (≈ 4.8 µg/mL) |  |  | 
2 | CCn1cc(C(=O)NCCC(=O)N2CCN(c3cc4c(cc3F)c(=O)c(C(=O)O)cn4C3CC3)CC2)c(=O)c2cc3c(cc21)OCO3 | 7.4 µM (≈ 4.78 µg/mL) | 1940 µM (≈ 1250 µg/mL) | 1940 µM (≈ 1250 µg/mL) | 1940 µM (≈ 1250 µg/mL)
3 | CCn1cc(C(=O)NCCCC(=O)N2CCN(c3cc4c(cc3F)c(=O)c(C(=O)O)cn4C3CC3)CC2)c(=O)c2cc3c(cc21)OCO3 | 59.1 µM (≈ 39 µg/mL) | 1890 µM (≈ 1250 µg/mL) | 1890 µM (≈ 1250 µg/mL) | 1890 µM (≈ 1250 µg/mL)
4 | CC[C@H](C)[C@H](NC(=O)c1cn(CC)c2cc3c(cc2c1=O)OCO3)C(=O)N1CCN(c2cc3c(cc2F)c(=O)c(C(=O)O)cn3C2CC2)CC1 | 909 µM (≈ 625 µg/mL) | 1820 µM (≈ 1250 µg/mL) | 1820 µM (≈ 1250 µg/mL) | 454 µM (≈ 313 µg/mL)
5 | CCn1cc(C(=O)N[C@@H](Cc2ccccc2)C(=O)N2CCN(c3cc4c(cc3F)c(=O)c(C(=O)O)cn4C3CC3)CC2)c(=O)c2cc3c(cc21)OCO3 | 433 µM (≈ 313 µg/mL) | 1730 µM (≈ 1250 µg/mL) | 1730 µM (≈ 1250 µg/mL) | 1730 µM (≈ 1250 µg/mL)
6 | CCn1cc(C(=O)N[C@@H](Cc2c[nH]c3ccccc23)C(=O)N2CCN(c3cc4c(cc3F)c(=O)c(C(=O)O)cn4C3CC3)CC2)c(=O)c2cc3c(cc21)OCO3 | 25.6 µM (≈ 19.5 µg/mL) | 411 µM (≈ 313 µg/mL) | 411 µM (≈ 313 µg/mL) | 51.3 µM (≈ 39 µg/mL)
7 | CCn1cc(C(=O)O)c(=O)c2cc(F)c(N3CCN(C(=O)CNC(=O)c4cn(CC)c5nc(C)ccc5c4=O)CC3)cc21 | 2120 µM (≈ 1250 µg/mL) |  |  | 33 µM (≈ 19.5 µg/mL)
8 | CCn1cc(C(=O)O)c(=O)c2cc(F)c(N3CCN(C(=O)CCNC(=O)c4cn(CC)c5nc(C)ccc5c4=O)CC3)cc21 | 2070 µM (≈ 1250 µg/mL) | 2070 µM (≈ 1250 µg/mL) | 2070 µM (≈ 1250 µg/mL) | 2070 µM (≈ 1250 µg/mL)
9 | CCn1cc(C(=O)O)c(=O)c2cc(F)c(N3CCN(C(=O)CCCNC(=O)c4cn(CC)c5nc(C)ccc5c4=O)CC3)cc21 | 505 µM (≈ 312 µg/mL) | 1010 µM (≈ 625 µg/mL) | 505 µM (≈ 312 µg/mL) | 505 µM (≈ 312 µg/mL)
10 | CC[C@H](C)[C@H](NC(=O)c1cn(CC)c2nc(C)ccc2c1=O)C(=O)N1CCN(c2cc3c(cc2F)c(=O)c(C(=O)O)cn3CC)CC1 | 1930 µM (≈ 1250 µg/mL) | 1930 µM (≈ 1250 µg/mL) | 1930 µM (≈ 1250 µg/mL) | 1930 µM (≈ 1250 µg/mL)
11 | CCn1cc(C(=O)O)c(=O)c2cc(F)c(N3CCN(C(=O)[C@H](Cc4ccccc4)NC(=O)c4cn(CC)c5nc(C)ccc5c4=O)CC3)cc21 | 115 µM (≈ 78.1 µg/mL) | 459 µM (≈ 313 µg/mL) | 918 µM (≈ 625 µg/mL) | 28.6 µM (≈ 19.5 µg/mL)
12 | CCn1cc(C(=O)O)c(=O)c2cc(F)c(N3CCN(C(=O)[C@H](Cc4c[nH]c5ccccc45)NC(=O)c4cn(CC)c5nc(C)ccc5c4=O)CC3)cc21 | 868 µM (≈ 625 µg/mL) | 1740 µM (≈ 1250 µg/mL) | 1740 µM (≈ 1250 µg/mL) | 1740 µM (≈ 1250 µg/mL)
13 | CCn1cc(C(=O)O)c(=O)c2cc(F)c(N3CCN(C(=O)CNC(=O)c4cn(CC)c5cc6c(cc5c4=O)OCO6)CC3)cc21 | 2020 µM (≈ 1250 µg/mL) |  |  | 
14 | CCn1cc(C(=O)O)c(=O)c2cc(F)c(N3CCN(C(=O)CCNC(=O)c4cn(CC)c5cc6c(cc5c4=O)OCO6)CC3)cc21 | 61.6 µM (≈ 39 µg/mL) | 247 µM (≈ 156 µg/mL) | 493 µM (≈ 313 µg/mL) | 30.8 µM (≈ 19.5 µg/mL)
15 | CCn1cc(C(=O)O)c(=O)c2cc(F)c(N3CCN(C(=O)CCCNC(=O)c4cn(CC)c5cc6c(cc5c4=O)OCO6)CC3)cc21 |  | 965 µM (≈ 625 µg/mL) |  | 482 µM (≈ 312 µg/mL)
16 | CC[C@H](C)[C@H](NC(=O)c1cn(CC)c2cc3c(cc2c1=O)OCO3)C(=O)N1CCN(c2cc3c(cc2F)c(=O)c(C(=O)O)cn3CC)CC1 | 1850 µM (≈ 1250 µg/mL) | 1850 µM (≈ 1250 µg/mL) | 462 µM (≈ 313 µg/mL) | 1850 µM (≈ 1250 µg/mL)
17 | CCn1cc(C(=O)O)c(=O)c2cc(F)c(N3CCN(C(=O)[C@H](Cc4ccccc4)NC(=O)c4cn(CC)c5cc6c(cc5c4=O)OCO6)CC3)cc21 | 1760 µM (≈ 1250 µg/mL) | 1760 µM (≈ 1250 µg/mL) | 1760 µM (≈ 1250 µg/mL) | 1760 µM (≈ 1250 µg/mL)
18 | CCn1cc(C(=O)O)c(=O)c2cc(F)c(N3CCN(C(=O)[C@H](Cc4c[nH]c5ccccc45)NC(=O)c4cn(CC)c5cc6c(cc5c4=O)OCO6)CC3)cc21 | 1670 µM (≈ 1250 µg/mL) | 1670 µM (≈ 1250 µg/mL) | 1670 µM (≈ 1250 µg/mL) | 1670 µM (≈ 1250 µg/mL)
19 | CCn1cc(C(=O)NCC(=O)N2CCN(c3cc4c(cc3F)c(=O)c(C(=O)O)cn4C3CC3)CC2)c(=O)c2ccc(C)nc21 | 64.7 µM (≈ 39 µg/mL) |  |  | 
20 | CCn1cc(C(=O)NCCC(=O)N2CCN(c3cc4c(cc3F)c(=O)c(C(=O)O)cn4C3CC3)CC2)c(=O)c2ccc(C)nc21 | 15.7 µM (≈ 9.68 µg/mL) | 7.8 µM (≈ 4.81 µg/mL) | 2030 µM (≈ 1250 µg/mL) | 1010 µM (≈ 625 µg/mL)
21 | CC[C@H](C)[C@H](NC(=O)c1cn(CC)c2nc(C)ccc2c1=O)C(=O)N1CCN(c2cc3c(cc2F)c(=O)c(C(=O)O)cn3C2CC2)CC1 | 1900 µM (≈ 1250 µg/mL) | 1900 µM (≈ 1250 µg/mL) | 1900 µM (≈ 1250 µg/mL) | 1900 µM (≈ 1250 µg/mL)
22 | CCn1cc(C(=O)N[C@@H](Cc2ccccc2)C(=O)N2CCN(c3cc4c(cc3F)c(=O)c(C(=O)O)cn4C3CC3)CC2)c(=O)c2ccc(C)nc21 | 1800 µM (≈ 1250 µg/mL) | 1800 µM (≈ 1250 µg/mL) | 1800 µM (≈ 1250 µg/mL) | 1800 µM (≈ 1250 µg/mL)
23 | CCn1cc(C(=O)N[C@@H](Cc2c[nH]c3ccccc23)C(=O)N2CCN(c3cc4c(cc3F)c(=O)c(C(=O)O)cn4C3CC3)CC2)c(=O)c2ccc(C)nc21 | 427 µM (≈ 312 µg/mL) | 854 µM (≈ 625 µg/mL) | 1710 µM (≈ 1250 µg/mL) | 3.3 µM (≈ 2.41 µg/mL)
24 | O=C(O)c1cn(C2CC2)c2cc(N3CCNCC3)c(F)cc2c1=O [CIPROFLOXACIN] | 9.2 µM (≈ 3.05 µg/mL) | 2390 µM (≈ 793 µg/mL) | 74.6 µM (≈ 24.7 µg/mL) | 74.6 µM (≈ 24.7 µg/mL)
25 | CCn1cc(C(=O)O)c(=O)c2ccc(C)nc21 [NALIDIXIC ACID] | 7.2 µM (≈ 1.67 µg/mL) | 3770 µM (≈ 876 µg/mL) | 14.5 µM (≈ 3.37 µg/mL) | 3770 µM (≈ 876 µg/mL)
26 | CCn1cc(C(=O)O)c(=O)c2cc(F)c(N3CCNCC3)cc21 [NORFLOXACIN] | 10.3 µM (≈ 3.29 µg/mL) | 1350 µM (≈ 430 µg/mL) | 336 µM (≈ 107 µg/mL) | 1350 µM (≈ 430 µg/mL)
27 | CCn1cc(C(=O)O)c(=O)c2cc3c(cc21)OCO3 [OXOLINIC ACID] | 7.5 µM (≈ 1.96 µg/mL) | 1960 µM (≈ 511 µg/mL) | 15 µM (≈ 3.92 µg/mL) | 3910 µM (≈ 1020 µg/mL)

Reference: ChEMBL document CHEMBL3608264, “Novel antibacterial active quinolone-fluoroquinolone conjugates and 2D-QSAR studies” (2015)
